In paper PMC8776995 (Frontiers in Chemistry, 2022):
“And” between values parts separate entries of the source, which are not always exact repeats. Equal entries are not always repeated. Where two headings read alike, the source gives them in different places.

Tests used:
H460 cells = assay: Flow cytometry detection for cell cycle, H460; format: cell-based, human; conditions: for G0/G1 / G2/M / S: single experiments (20200711, 20200810, 20200812)
Experimental: (§1) To investigate the effects of compounds e4 and e12 on various phases of the cell cycle, PC-9 cells were treated with compound e4 or e12 of various concentrations for 24 h, and H460 cells were treated with compound e4 or e12 of various concentrations for 12 h.
(§2) PC-9 or H460 (2 × 10^5–3 × 10^5/well) cells were seeded in six-well plates for 24 h, and then treated with 0.1% DMSO (as control), various concentrations of either compound e4 or e12 for 24 h (PC-9) or 12 h (H460), respectively. The treated cells were harvested, washed with PBS, and then stained using the cell-cycle staining kit according to the manufacturer’s manual. The distribution of cell-cycle phases with different DNA contents was determined by flow cytometry (BD LSRFortessa™ Flow Cytometer) and analyzed using ModFit LT software.

[1] = test system: AKT phosphorylation (S473) in PC-9 cells; assay: Western blot, p-AKT/AKT in PC-9; conditions: for p-AKT/AKT: band density ratio; for p-AKT/AKT relative to DMSO: ratio normalised to DMSO = 1
Experimental: (§3) We also performed western blot analysis to evaluate the impact of e4 and e12 on EGFR signaling in PC-9 and H460 cells.
(§4) H460 cells were seeded in six-well plates with serum-free medium overnight, and then treated complete medium containing 0.1% DMSO, various concentrations (0.1, 1 and 10 μM) of either compound e4 or e12 for 2 h, respectively. […] Then the H460 cells were treated with complete medium containing EGF (10 ng/ml) for 5 min. Then the cells were harvested and washed with PBS, centrifuged, resuspended in 100–200 μl of RIPA lysis buffer containing Protease and Phosphatase Inhibitor Cocktail (1X), and then centrifuged for 5 min at 12,000 rpm at 4°C. The supernatant was used for protein analysis. […] Then the membrane was washed 5 min (X3) and incubated at 1:3,000 dilution of anti-rabbit secondary antibodies or 1:1,000 dilution of anti-mouse secondary antibodies for 1 h at RT. After washing with TBST 5 min (X3), protein bands were developed by chemiluminescence. The protein levels were quantified by the gray values of the bands in the resulting images by ImageJ, and the control group was used as the standard. […] The PC-9 cells were harvested and analyzed as above.

[2] = test system: EGFR phosphorylation (Tyr1068) in PC-9 cells; assay: Western blot, p-EGFR/EGFR in PC-9; conditions: for p-EGFR/EGFR: band density ratio; for p-EGFR/EGFR relative to DMSO: ratio normalised to DMSO = 1
Experimental: as §3, §4

[3] = test system: AKT phosphorylation (S473) in H460 cells; assay: Western blot, p-AKT/AKT in H460; conditions: for p-AKT/AKT: band density ratio; for p-AKT/AKT relative to DMSO: ratio normalised to DMSO
Experimental: as §3, §4

wild-type EGFR = wild-type EGFR (Homo sapiens, UniProt P00533); assay: EGFR kinase assay (ELISA); conditions: for A450: raw ELISA absorbance
Sequence of wild-type EGFR (P00533 25-1210): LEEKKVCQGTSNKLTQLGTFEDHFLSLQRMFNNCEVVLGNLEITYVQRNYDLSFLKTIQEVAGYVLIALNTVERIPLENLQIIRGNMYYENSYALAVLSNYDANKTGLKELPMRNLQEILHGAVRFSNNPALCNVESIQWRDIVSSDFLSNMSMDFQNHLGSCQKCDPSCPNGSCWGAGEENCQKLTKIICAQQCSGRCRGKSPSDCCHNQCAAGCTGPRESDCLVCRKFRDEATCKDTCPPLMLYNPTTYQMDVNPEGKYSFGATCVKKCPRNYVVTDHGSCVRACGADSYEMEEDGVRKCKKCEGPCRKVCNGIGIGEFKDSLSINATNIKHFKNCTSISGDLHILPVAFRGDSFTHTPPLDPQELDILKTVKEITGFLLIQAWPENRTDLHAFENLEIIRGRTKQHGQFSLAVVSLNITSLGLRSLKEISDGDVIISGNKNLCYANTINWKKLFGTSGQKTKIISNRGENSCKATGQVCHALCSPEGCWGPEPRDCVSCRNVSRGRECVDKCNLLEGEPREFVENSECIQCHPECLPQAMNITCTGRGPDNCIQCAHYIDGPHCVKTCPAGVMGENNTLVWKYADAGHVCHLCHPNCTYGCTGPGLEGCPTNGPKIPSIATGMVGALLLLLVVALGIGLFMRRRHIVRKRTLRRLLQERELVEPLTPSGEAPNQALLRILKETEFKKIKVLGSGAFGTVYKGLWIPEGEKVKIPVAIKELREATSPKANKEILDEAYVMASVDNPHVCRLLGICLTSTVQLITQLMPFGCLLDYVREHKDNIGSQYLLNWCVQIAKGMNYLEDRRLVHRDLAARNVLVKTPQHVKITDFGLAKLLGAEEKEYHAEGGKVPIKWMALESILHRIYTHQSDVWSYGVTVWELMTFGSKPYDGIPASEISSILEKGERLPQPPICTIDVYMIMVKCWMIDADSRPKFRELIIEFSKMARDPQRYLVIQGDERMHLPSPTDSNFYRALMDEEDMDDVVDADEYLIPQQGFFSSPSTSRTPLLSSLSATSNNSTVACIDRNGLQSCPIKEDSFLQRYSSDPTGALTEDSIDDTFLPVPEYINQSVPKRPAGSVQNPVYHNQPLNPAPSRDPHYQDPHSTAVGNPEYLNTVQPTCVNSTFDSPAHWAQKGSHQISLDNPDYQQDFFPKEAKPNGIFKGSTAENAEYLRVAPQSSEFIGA

PC-9 cells [4] = assay: Flow cytometry detection for cell cycle, PC-9; format: cell-based, human; conditions: for G0/G1 / G2/M / S: single repeats (Repeat 1-3)
Experimental: as §1, §2

H1975 cells = assay: CCK-8 antiproliferation assay, H1975; conditions: for Inhibitory efficacy: H1975 cells
PC-9 cells [5] = assay: CCK-8 antiproliferation assay, PC-9; conditions: for Inhibitory efficacy: single repeats (Repeat 1-3), given as fraction

Structure (SMILES): COCCOc1cc2ncnc(Nc3cccc(-c4cn(-c5ccc(C)cc5)nn4)c3)c2cc1OCCOC [e12, [6,7-Bis-(2-methoxy-ethoxy)-quinazolin-4-yl]-[3-(1-p-tolyl-1H-[1,2,3]triazol-4-yl)-phenyl]-amine]
- G0/G1 (H460 cells; H460, 4uM): 46.77% and 59.95%
- G2/M (H460 cells; H460, 4uM): 19.08% and 18.32% and 13.33%
- S (H460 cells; H460, 4uM): 34.15% and 35.36% and 26.72%
- G0/G1 (H460 cells; H460, 8uM): 49.59% and 63.38%
- G2/M (H460 cells; H460, 8uM): 16.88% and 18.32% and 11.47%
- S (H460 cells; H460, 8uM): 33.54% and 35.36% and 25.15%
- G0/G1 (H460 cells; H460, 12uM): 47.32% and 46.51% and 62.09%
- S (H460 cells; H460, 12uM): 32.63% and 19.41% and 25.2%
- percentage of cells in the G0/G1 phase (H460 cells; H460, various concentrations, 12 h): induced higher percentages
- p-AKT/AKT ([1]; PC-9, 0.1 uM): 0.5916
- p-AKT/AKT relative to DMSO ([1]; PC-9, 0.1 uM): 0.5679
- p-AKT/AKT ([1]; PC-9, 1 uM): 0.4098
- p-AKT/AKT relative to DMSO ([1]; PC-9, 1 uM): 0.3934
- p-AKT/AKT ([1]; PC-9, 10 uM): 0.7398
- p-AKT/AKT relative to DMSO ([1]; PC-9, 10 uM): 0.7102
- phosphorylation of AKT (western blot) ([1]; PC-9, especially at 10 μM): suppressed
- p-EGFR/EGFR ([2]; PC-9, 0.1 uM): 1.065
- p-EGFR/EGFR relative to DMSO ([2]; PC-9, 0.1 uM): 0.9518
- p-EGFR/EGFR ([2]; PC-9, 1 uM): 0.9522
- p-EGFR/EGFR relative to DMSO ([2]; PC-9, 1 uM): 0.8509
- p-EGFR/EGFR ([2]; PC-9, 10 uM): 0.4177
- p-EGFR/EGFR relative to DMSO ([2]; PC-9, 10 uM): 0.3732
- phosphorylation of EGFR (western blot) ([2]; PC-9, especially at 10 μM): suppressed
- p-AKT/AKT ([3]; H460, 0.1 uM): 1.267
- p-AKT/AKT relative to DMSO ([3]; H460, 0.1 uM): 1.274
- p-AKT/AKT ([3]; H460, 1 uM): 0.9055
- p-AKT/AKT relative to DMSO ([3]; H460, 1 uM): 0.9102
- p-AKT/AKT ([3]; H460, 10 uM): 0.594
- p-AKT/AKT relative to DMSO ([3]; H460, 10 uM): 0.5972
- phosphorylation of AKT (western blot) ([3]; H460, especially at 10 μM): suppressed
- IC50 (wild-type EGFR; IC50 (μM) EGFR, ELISA, 3 μmol/L ATP): 1.76 µM
- inhibition at 100 fM (wild-type EGFR; concentration 0.0001 nM (reference for normalisation), one value per replicate column): 0%
- inhibition at 30 pM (wild-type EGFR; concentration 0.03 nM, one value per replicate column): 8.63%
- Inhibition (wild-type EGFR; concentration 0.03 nM, one value per replicate column, 3e-05 µM): 6.151
- inhibition at 0.0003 µM (wild-type EGFR; concentration 0.3 nM, one value per replicate column): 9.04%
- Inhibition (wild-type EGFR; concentration 0.3 nM, one value per replicate column, 0.0003 µM): 14.0873
- inhibition at 0.003 µM (wild-type EGFR; concentration 3 nM, one value per replicate column): 9.24%
- Inhibition (wild-type EGFR; concentration 3 nM, one value per replicate column, 0.003 µM): 16.0714
- inhibition at 0.03 µM (wild-type EGFR; concentration 30 nM, one value per replicate column): 16.1%
- Inhibition (wild-type EGFR; concentration 30 nM, one value per replicate column, 0.03 µM): 18.4524
- inhibition at 0.3 µM (wild-type EGFR; concentration 300 nM, one value per replicate column): 20.3%
- Inhibition (wild-type EGFR; concentration 300 nM, one value per replicate column, 0.3 µM): 32.1429
- inhibition at 3 µM (wild-type EGFR; concentration 3000 nM, one value per replicate column): 50.8%
- Inhibition (wild-type EGFR; concentration 3000 nM, one value per replicate column, 3 µM): 50.5952
- inhibition at 30 µM (wild-type EGFR; concentration 30000 nM, one value per replicate column): 85.5%
- Inhibition (wild-type EGFR; concentration 30000 nM, one value per replicate column, 30 µM): 85.9127
- A450 (wild-type EGFR; concentration 0.0001 nM): 0.655 and 0.663
- A450 (wild-type EGFR; concentration 0.03 nM): 0.612 and 0.632
- A450 (wild-type EGFR; concentration 0.3 nM): 0.61 and 0.592
- A450 (wild-type EGFR; concentration 3 nM): 0.609 and 0.582
- A450 (wild-type EGFR; concentration 30 nM): 0.575 and 0.57
- A450 (wild-type EGFR; concentration 300 nM): 0.554 and 0.501
- A450 (wild-type EGFR; concentration 3000 nM): 0.402 and 0.408
- A450 (wild-type EGFR; concentration 30000 nM): 0.229 and 0.23
- G0/G1 (PC-9 cells [4]; PC-9, 4uM): 56.16 and 54.85 and 57.63
- G2/M (PC-9 cells [4]; PC-9, 4uM): 17.84 and 17.98 and 15.19
- S (PC-9 cells [4]; PC-9, 4uM): 26.01 and 27.17 and 27.19
- G0/G1 (PC-9 cells [4]; PC-9, 8uM): 53.08 and 54.06 and 56.12
- G2/M (PC-9 cells [4]; PC-9, 8uM): 20.06 and 19.34 and 16.67
- S (PC-9 cells [4]; PC-9, 8uM): 26.86 and 26.6 and 27.1
- G0/G1 (PC-9 cells [4]; PC-9, 12uM): 56.88 and 57.79 and 60.22
- G2/M (PC-9 cells [4]; PC-9, 12uM): 21.27 and 20.78 and 17.44
- S (PC-9 cells [4]; PC-9, 12uM): 21.85 and 21.43 and 22.34
- percentage of cells in the G0/G1 phase (PC-9 cells [4]; PC-9, various concentrations, 24 h): induced higher percentages
- Inhibitory efficacy (H1975 cells; 1uM, given as fraction, Repeat 1-3): 0.1624 and 0.1374
- Inhibitory efficacy (H1975 cells; 2uM, given as fraction, Repeat 1-3): 0.2034 and 0.2177
- Inhibitory efficacy (H1975 cells; 4uM, given as fraction, Repeat 1-3): 0.2052 and 0.2481
- Inhibitory efficacy (H1975 cells; 8uM, given as fraction, Repeat 1-3): 0.4158 and 0.4836
- Inhibitory efficacy (H1975 cells; 16uM, given as fraction, Repeat 1-3): 0.8709 and 0.8763
- IC50 (H1975 cells; Homo sapiens, NCI-H1975, 48 h, read-out: IC50 (μM) H1975, CCK-8, 48 h, average ± SD of three independent experiments): < 10 µM
- inhibition at 1 µM (H1975 cells; Homo sapiens, NCI-H1975, read-out: Inhibitory efficacy, H1975 cells, 1uM, given as fraction, Repeat 1-3): 18.4%
- inhibition at 2 µM (H1975 cells; Homo sapiens, NCI-H1975, read-out: Inhibitory efficacy, H1975 cells, 2uM, given as fraction, Repeat 1-3): 28.9%
- inhibition at 4 µM (H1975 cells; Homo sapiens, NCI-H1975, read-out: Inhibitory efficacy, H1975 cells, 4uM, given as fraction, Repeat 1-3): 23.2%
- inhibition at 8 µM (H1975 cells; Homo sapiens, NCI-H1975, read-out: Inhibitory efficacy, H1975 cells, 8uM, given as fraction, Repeat 1-3): 40.7%
- inhibition at 16 µM (H1975 cells; Homo sapiens, NCI-H1975, read-out: Inhibitory efficacy, H1975 cells, 16uM, given as fraction, Repeat 1-3): 87.6%
- IC50 (H1975 cells; read-out: IC50 (μM) H1975, CCK-8, 48 h, average ± SD of three independent experiments): 7.25 ± 0.45 µM
- IC50 (PC-9 cells [5]; Homo sapiens, PC-9, 48 h, read-out: IC50 (μM) PC-9): 6.36 ± 0.11 µM
- inhibition at 4 µM (PC-9 cells [5]; Homo sapiens, PC-9, read-out: Inhibitory efficacy, PC-9, 4uM, single repeats (Repeat 1-3), given as fraction): 21.3%
- inhibition at 8 µM (PC-9 cells [5]; Homo sapiens, PC-9, read-out: Inhibitory efficacy, PC-9, 8uM, single repeats (Repeat 1-3), given as fraction): 70.1%
- inhibition at 16 µM (PC-9 cells [5]; Homo sapiens, PC-9, read-out: Inhibitory efficacy, PC-9, 16uM, single repeats (Repeat 1-3), given as fraction): 88.6%
- Inhibitory efficacy (PC-9 cells [5]; PC-9, 4uM, 4 µM): 0.1587 and 0.2347
- Inhibitory efficacy (PC-9 cells [5]; PC-9, 8uM, 8 µM): 0.6968 and 0.6771
- Inhibitory efficacy (PC-9 cells [5]; PC-9, 16uM, 16 µM): 0.8795 and 0.8884
